Reference: US10501421B1, “Substituted benzimidazoles as modulators of Ras signaling” (VANDERBILT UNIVERSITY, priority 2017, dated 2019)
Counter-ions that a name gives are not always drawn. Like-named read-outs stand apart in the source and are kept apart here.

Experiments:
[1] = molecular target: Ras GEF SOS (Son of Sevenless) (Homo sapiens, UniProt Q07889); test: SOS-mediated nucleotide exchange on Ras (BODIPY-GDP fluorescence); assay type: biochemical; settings: SOS-mediated exchange of BODIPY-GDP for GTP on Ras
Chain of Ras GEF SOS (Son of Sevenless) (Q07889 564-1049 limits assumed): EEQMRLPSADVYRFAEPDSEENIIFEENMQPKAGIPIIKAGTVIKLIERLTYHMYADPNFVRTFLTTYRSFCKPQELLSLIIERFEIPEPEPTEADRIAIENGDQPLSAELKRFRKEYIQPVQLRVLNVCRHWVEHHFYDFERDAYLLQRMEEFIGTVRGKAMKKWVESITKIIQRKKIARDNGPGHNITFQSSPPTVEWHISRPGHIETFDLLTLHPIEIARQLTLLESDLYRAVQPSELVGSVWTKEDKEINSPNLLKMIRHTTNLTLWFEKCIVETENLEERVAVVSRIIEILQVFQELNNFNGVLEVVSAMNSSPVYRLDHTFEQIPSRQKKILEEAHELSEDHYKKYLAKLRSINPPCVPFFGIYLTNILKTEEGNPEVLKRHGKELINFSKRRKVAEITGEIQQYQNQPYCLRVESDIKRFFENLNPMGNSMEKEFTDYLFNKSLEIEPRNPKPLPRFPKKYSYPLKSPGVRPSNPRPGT
Chain of Ras GEF SOS (Son of Sevenless) (P01112 1-166 partner limits assumed): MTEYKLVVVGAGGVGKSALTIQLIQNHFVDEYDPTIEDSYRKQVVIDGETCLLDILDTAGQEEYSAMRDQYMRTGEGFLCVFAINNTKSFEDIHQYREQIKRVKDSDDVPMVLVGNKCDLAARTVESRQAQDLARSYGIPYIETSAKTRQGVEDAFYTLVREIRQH
Summary of the method: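 Ras loaded with BODIPY-GDP was mixed in buffer with test compound, then GTP and SOS. Fluorescence change from labeled GDP/GTP exchange was followed over time, and rates came from single-exponential fits. EC50 came from a four-parameter fit of mean rate against compound concentration.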

[2] = test system: H727 lung cancer cell lines (G12V K-Ras mutation); test: Inhibition of cancer cell proliferation (CellTiter-Glo); assay type: cell-based; settings: Homo sapiens, NCI-H727, 72 h, read-out: Cell proliferation activity (H727 cancer cell line proliferation IC50)
Description: Compounds of the present invention were measured for their ability to kill H727 lung cancer cell lines, which contain a G12V K-Ras mutation. Cell proliferation experiments were conducted in 96-well plates. Cells were plated at 1000 cells/well, incubated overnight, followed by treatment with a dose range of compound for 3 days at 37° C. Cell proliferation was assessed using a CellTiter-Glo assay (Promega) according to the manufacturer's protocol. Data were normalized to DMSO control. IC50 values were determined using a four-parameter dose-response (variable slope) equation. These assays are performed in a manner analogous to the assay disclosed in: Burns, M. C.; Sun, Q.; Daniels, R. N.; Camper, D. V.; Kennedy, J. P.; Phan, J.; Olejniczak, E. O.; Lee, T.; Waterson, A. G.; Rossanese, O. W.; Fesik, S. W. “Approach for targeting Ras with small molecules that activate SOS-mediated nucleotide exchange” Proc. Natl. Acad. Sci. 2014; 11(9): 3401-3406. PMCID: PMC3948241.

[3] = H727 cells, 3 days treatment, CellTiter-Glo

IC50 [2, 3] [µM] | Structure (SMILES) | EC50 [1] [µM] | IC50 [2] [µM]
 | Cc1ccccc1-c1cccc2c1nc(N1CCNCC1)n2Cc1ccc(F)c(Cl)c1 [Example 79, 1-(3-chloro-4-fluorobenzyl)-2-(piperazin-1-yl)-4-(o-tolyl)-1H-benzo[d]imidazole trifluoroacetate] | 1 to 5 | 5 to 20
 | Fc1ccc(Cn2c(N3CCNCC3)nc3c(-c4ccccc4Cl)cccc32)cc1Cl [Example 84, 1-(3-chloro-4-fluorobenzyl)-4-(2-chlorophenyl)-2-(piperazin-1-yl)-1H-benzo[d]imidazole trifluoroacetate] | 1 to 5 | 1 to 5
 | Cc1nn(C)c(C)c1-c1cccc2c1nc(N1CCNCC1)n2Cc1ccc(F)c(Cl)c1 [Example 85, 1-(3-chloro-4-fluorobenzyl)-2-(piperazin-1-yl)-4-(1,3,5-trimethyl-1H-pyrazol-4-yl)-1H-benzo[d]imidazole trifluoroacetate] | 1 to 5 | 5 to 20
 | Cn1nccc1-c1cccc2c1nc(N1CCNCC1)n2Cc1ccc(F)c(Cl)c1 [Example 86, 1-(3-chloro-4-fluorobenzyl)-4-(1-methyl-1H-pyrazol-5-yl)-2-(piperazin-1-yl)-1H-benzo[d]imidazole trifluoroacetate] | 1 to 5 | 5 to 20
5 to 20 | Fc1ccc(Cn2c(N3CCNCC3)nc3c(-c4ccc(C(F)(F)F)cc4)cccc32)cc1Cl [Example 87, 1-(3-chloro-4-fluorobenzyl)-2-(piperazin-1-yl)-4-(4-(trifluoromethyl)phenyl)-1H-benzo[d]imidazole] | 5 to 30 | 
1 to 5 | COc1ccc(-c2cccc3c2nc(N2CCNCC2)n3Cc2ccc(C(F)(F)F)cc2)cc1OC [Example 91, 4-(3,4-dimethoxyphenyl)-2-(piperazin-1-yl)-1-(4-(trifluoromethyl)benzyl)-1H-benzo[d]imidazole] | 5 to 30 | 
1 to 5 | Nc1ccc(-c2cccc3c2nc(N2CCNCC2)n3Cc2ccc(C(F)(F)F)cc2)cc1 [Example 92, 4-(2-(piperazin-1-yl)-1-(4-(trifluoromethyl)benzyl)-1H-benzo[d]imidazol-4-yl)aniline] | 1 to 5 | 
< 1 | CC(C)c1ccccc1-c1cccc2c1nc(N1CCNCC1)n2Cc1ccc(C(F)(F)F)cc1 [Example 95, 4-(2-isopropylphenyl)-2-(piperazin-1-yl)-1-(4-(trifluoromethyl)benzyl)-1H-benzo[d]imidazole] | 1 to 5 | 
1 to 5 | Cc1cc(-c2cccc3c2nc(N2CCNCC2)n3Cc2ccc(C(F)(F)F)cc2)nn1C [Example 96, 4-(1,5-dimethyl-1H-pyrazol-3-yl)-2-(piperazin-1-yl)-1-(4-(trifluoromethyl)benzyl)-1H-benzo[d]imidazole] | 1 to 5 | 
< 1 | CC(C)c1ccccc1-c1cccc2c1nc(N1CCNCC1)n2Cc1cc(F)cc(F)c1 [Example 97, 1-(3,5-difluorobenzyl)-4-(2-isopropylphenyl)-2-(piperazin-1-yl)-1H-benzo[d]imidazole] | 1 to 5 | 
 | CCNCc1c(C)c(C)cc2c1nc(N1CCNCC1)n2Cc1cc(C)c(F)c(C)c1 [Example 131, N-((1-(4-fluoro-3,5-dimethylbenzyl)-5,6-dimethyl-2-(piperazin-1-yl)-1H-benzo[d]imidazol-4-yl)methyl)ethanamine trifluoroacetate] | 1 to 5 | < 1
 | Cc1cc(CNCC(C)C)c2nc(N3CCNCC3)n(Cc3cc(C)c(F)c(C)c3)c2c1 [Example 133, N-((1-(4-fluoro-3,5-dimethylbenzyl)-6-methyl-2-(piperazin-1-yl)-1H-benzo[d]imidazol-4-yl)methyl)-2-methylpropan-1-amine trifluoroacetate] | 1 to 5 | 1 to 5
 | Cc1cc2c(nc(N3CCNCC3)n2Cc2cc(C)c(F)c(C)c2)c(CO)c1C [Example 138, (1-(4-fluoro-3,5-dimethylbenzyl)-5,6-dimethyl-2-(piperazin-1-yl)-1H-benzo[d]imidazol-4-yl)methanol trifluoroacetate] | 1 to 5 | 5 to 20
